# Columns and labels:
# bedstraw = experiment: Test B pre/postemergence bedstraw; format: in vivo, Galium aparine; conditions: Postemergence
# Summary of the method: (§1)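 Response is a visual 0-to-10 score relative to untreated plants, where 0 means no effect and 10 means complete control, taken twelve to sixteen days after application. Treatments went onto soil at planting and onto foliage of 1- to 4-leaf plants, using a surfactant-containing non-phytotoxic solvent.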
# cocklebur = experiment: Test B pre/postemergence cocklebur; format: in vivo, Xanthium strumarium; conditions: for Cocklebur plant response rating: scale of 0 to 10 where 0 is no effect and 10 is complete control
# Summary of the method: as §1
# corn = experiment: Test B pre/postemergence corn; format: in vivo, Zea mays; conditions: for Corn plant response rating: scale of 0 to 10 where 0 is no effect and 10 is complete control
# Summary of the method: as §1
# crabgrass = experiment: Test B pre/postemergence crabgrass; format: in vivo, Digitaria sanguinalis; conditions: for Crabgrass plant response rating: scale of 0 to 10 where 0 is no effect and 10 is complete control
# Summary of the method: as §1
# giant foxtail = experiment: Test B pre/postemergence giant foxtail; format: in vivo, Setaria faberii; conditions: for Giant foxtail plant response rating: scale of 0 to 10 where 0 is no effect and 10 is complete control
# Summary of the method: as §1
# morningglory = experiment: Test B pre/postemergence morningglory; format: in vivo, Ipomoea hederacea; conditions: for Morningglory plant response rating: scale of 0 to 10 where 0 is no effect and 10 is complete control
# Summary of the method: as §1
# pigweed = experiment: Test B pre/postemergence pigweed; format: in vivo, Amaranthus retroflexus; conditions: for Redroot pigweed plant response rating: scale of 0 to 10 where 0 is no effect and 10 is complete control
# Summary of the method: as §1
# rape = experiment: Test B pre/postemergence rape; format: in vivo, Brassica napus; conditions: for Rape plant response rating: scale of 0 to 10 where 0 is no effect and 10 is complete control
# Summary of the method: as §1
# soybean = experiment: Test B pre/postemergence soybean; format: in vivo, Glycine max; conditions: for Soybean plant response rating: scale of 0 to 10 where 0 is no effect and 10 is complete control
# Summary of the method: as §1
# velvetleaf = experiment: Test B pre/postemergence velvetleaf; format: in vivo, Abutilon theophrasti; conditions: for Velvetleaf plant response rating: scale of 0 to 10 where 0 is no effect and 10 is complete control
# Summary of the method: as §1
# wheat = experiment: Test B pre/postemergence wheat; format: in vivo, Triticum aestivum; conditions: for Wheat plant response rating: scale of 0 to 10 where 0 is no effect and 10 is complete control
# Summary of the method: as §1
# wild oat = experiment: Test B pre/postemergence wild oat; format: in vivo, Avena fatua; conditions: for Wild oats plant response rating: scale of 0 to 10 where 0 is no effect and 10 is complete control
# Summary of the method: as §1
# purple nutsedge = experiment: Test B pre/postemergence purple nutsedge; format: in vivo, Cyperus rotundus; conditions: for Nutsedge plant response rating: scale of 0 to 10 where 0 is no effect and 10 is complete control
# Summary of the method: as §1
# rice = experiment: Test B flood test rice; format: in vivo, Oryza sativa
# Summary of the method: (§2)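 Flood test on plants grown to the 2-leaf stage; treated plants kept in greenhouse twelve to sixteen days, then visually rated against controls on a 0 (no effect) to 10 (complete control) scale.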
# smallflower flatsedge = experiment: Test B flood test smallflower flatsedge; format: in vivo, Cyperus difformis
# Summary of the method: as §2
# duck salad = experiment: Test B flood test duck salad; format: in vivo, Heteranthera limosa
# Summary of the method: as §2
# [1] = Postemergence, Rate 125 g/ha, scale 0 to 10, 0 is no effect, 10 is complete control
# [2] = Preemergence, Rate 62 g/ha, scale 0 to 10 (0 no effect, 10 complete control)
# [3] = Rate 500 g/ha, Postemergence, scale 0 to 10, 0 no effect, 10 complete control
# [4] = Postemergence (flood test), Rate 125 g/ha, scale 0 to 10, 0 is no effect, 10 is complete control
# [5] = Rate 62 g/ha, Postemergence (flood test species), scale of 0 to 10 where 0 is no effect and 10 is complete control
# [6] = Rate 500 g/ha, listed under Postemergence (flood test species), scale 0 to 10, 0 no effect, 10 complete control
smiles,measurement,setting,value
CC(C)N(C(=O)n1oc(=O)n(CC2CCCO2)c1=O)c1ccc(F)cc1 (stereo not shown) [Compound 343],"Plant response rating, Bedstraw","bedstraw; Rate 125 g/ha, scale 0 to 10, 0 is no effect, 10 is complete control",0
same,Bedstraw plant response rating,"bedstraw; Rate 62 g/ha, scale of 0 to 10 where 0 is no effect and 10 is complete control",0
same,"Plant response rating, Bedstraw","bedstraw; Rate 250 g/ha, scale of 0 to 10 where 0 is no effect and 10 is complete control",0
same,"Plant response rating, Bedstraw","bedstraw; Rate 500 g/ha, scale 0 to 10, 0 no effect, 10 complete control",3
same,"Plant response rating, Cocklebur",cocklebur; [1],0
same,"Plant response rating, Cocklebur",cocklebur; [2],0
same,Cocklebur plant response rating,"cocklebur; Preemergence, Rate 250 g/ha",0
same,Cocklebur plant response rating,"cocklebur; Preemergence, Rate 500 g/ha",0
same,Cocklebur plant response rating,"cocklebur; Rate 62 g/ha, Postemergence",0
same,"Plant response rating, Cocklebur",cocklebur; [3],4
same,"Plant response rating, Corn",corn; [1],0
same,"Plant response rating, Corn",corn; [2],0
same,Corn plant response rating (0 to 10 scale),"corn; Preemergence, Rate 125 g/ha",0
same,Corn plant response rating,"corn; Preemergence, Rate 250 g/ha",0
same,Corn plant response rating,"corn; Preemergence, Rate 500 g/ha",4
same,Corn plant response rating,"corn; Rate 62 g/ha, Postemergence",0
same,"Plant response rating, Corn",corn; [3],2
same,"Plant response rating, Crabgrass",crabgrass; [1],1
same,"Plant response rating, Crabgrass",crabgrass; [2],6
same,Crabgrass plant response rating (0 to 10 scale),"crabgrass; Preemergence, Rate 125 g/ha",9
same,Crabgrass plant response rating,"crabgrass; Preemergence, Rate 500 g/ha",10
same,Crabgrass plant response rating,"crabgrass; Rate 62 g/ha, Postemergence",1
same,"Plant response rating, Crabgrass",crabgrass; [3],6
same,"Plant response rating, Giant foxtail",giant foxtail; [1],7
same,"Plant response rating, Giant foxtail",giant foxtail; [2],10
same,Giant foxtail plant response rating (0 to 10 scale),"giant foxtail; Preemergence, Rate 125 g/ha",10
same,Giant foxtail plant response rating,"giant foxtail; Preemergence, Rate 250 g/ha",10
same,Giant foxtail plant response rating,"giant foxtail; Preemergence, Rate 500 g/ha",10
same,Giant foxtail plant response rating,"giant foxtail; Rate 62 g/ha, Postemergence",7
same,"Plant response rating, Giant foxtail",giant foxtail; [3],9
same,"Plant response rating, Morningglory",morningglory; [1],2
same,"Plant response rating, Morningglory",morningglory; [2],0
same,Morningglory plant response rating (0 to 10 scale),"morningglory; Preemergence, Rate 125 g/ha",2
same,Morningglory plant response rating,"morningglory; Preemergence, Rate 500 g/ha",3
same,Morningglory plant response rating,"morningglory; Rate 62 g/ha, Postemergence",2
same,"Plant response rating, Morningglory",morningglory; [3],9
same,"Plant response rating, Redroot pigweed",pigweed; [1],0
same,"Plant response rating, Redroot pigweed",pigweed; [2],10
same,Redroot pigweed plant response rating (0 to 10 scale),"pigweed; Preemergence, Rate 125 g/ha",10
same,Redroot pigweed plant response rating,"pigweed; Preemergence, Rate 250 g/ha",10
same,Redroot pigweed plant response rating,"pigweed; Preemergence, Rate 500 g/ha",10
same,Redroot pigweed plant response rating,"pigweed; Rate 62 g/ha, Postemergence",0
same,"Plant response rating, Redroot pigweed",pigweed; [3],5
same,"Plant response rating, Rape",rape; [1],0
same,"Plant response rating, Rape",rape; [2],0
same,Rape plant response rating (0 to 10 scale),"rape; Preemergence, Rate 125 g/ha",0
same,Rape plant response rating,"rape; Preemergence, Rate 250 g/ha",4
same,Rape plant response rating,"rape; Preemergence, Rate 500 g/ha",6
same,Rape plant response rating,"rape; Rate 62 g/ha, Postemergence",0
same,"Plant response rating, Rape",rape; [3],3
same,"Plant response rating, Soybean",soybean; [1],1
same,"Plant response rating, Soybean",soybean; [2],0
same,Soybean plant response rating (0 to 10 scale),"soybean; Preemergence, Rate 125 g/ha",0
same,Soybean plant response rating,"soybean; Preemergence, Rate 250 g/ha",0
same,Soybean plant response rating,"soybean; Preemergence, Rate 500 g/ha",0
same,Soybean plant response rating,"soybean; Rate 62 g/ha, Postemergence",1
same,"Plant response rating, Soybean",soybean; [3],3
same,"Plant response rating, Velvetleaf",velvetleaf; [1],0
same,"Plant response rating, Velvetleaf",velvetleaf; [2],5
same,Velvetleaf plant response rating (0 to 10 scale),"velvetleaf; Preemergence, Rate 125 g/ha",6
same,Velvetleaf plant response rating,"velvetleaf; Preemergence, Rate 250 g/ha",7
same,Velvetleaf plant response rating,"velvetleaf; Preemergence, Rate 500 g/ha",7
same,Velvetleaf plant response rating,"velvetleaf; Rate 62 g/ha, Postemergence",0
same,"Plant response rating, Velvetleaf",velvetleaf; [3],5
same,"Plant response rating, Wheat",wheat; [1],4
same,"Plant response rating, Wheat",wheat; [2],0
same,Wheat plant response rating (0 to 10 scale),"wheat; Preemergence, Rate 125 g/ha",0
same,Wheat plant response rating,"wheat; Preemergence, Rate 250 g/ha",0
same,Wheat plant response rating,"wheat; Preemergence, Rate 500 g/ha",5
same,Wheat plant response rating,"wheat; Rate 62 g/ha, Postemergence",2
same,"Plant response rating, Wheat",wheat; [3],5
same,"Plant response rating, Wild oats",wild oat; [1],4
same,"Plant response rating, Wild oats",wild oat; [2],2
same,Wild oats plant response rating (0 to 10 scale),"wild oat; Preemergence, Rate 125 g/ha",4
same,Wild oats plant response rating,"wild oat; Preemergence, Rate 250 g/ha",9
same,Wild oats plant response rating,"wild oat; Preemergence, Rate 500 g/ha",9
same,Wild oats plant response rating,"wild oat; Rate 62 g/ha, Postemergence",0
same,"Plant response rating, Wild oats",wild oat; [3],4
same,"Plant response rating, Nutsedge",purple nutsedge; [1],0
same,"Plant response rating, Nutsedge",purple nutsedge; [2],0
same,Nutsedge plant response rating (0 to 10 scale),"purple nutsedge; Preemergence, Rate 125 g/ha",0
same,Nutsedge plant response rating,"purple nutsedge; Preemergence, Rate 250 g/ha",0
same,Nutsedge plant response rating,"purple nutsedge; Preemergence, Rate 500 g/ha",0
same,Nutsedge plant response rating,"purple nutsedge; Rate 62 g/ha, Postemergence",0
same,"Plant response rating, Nutsedge",purple nutsedge; [3],3
same,"Plant response rating, Rice",rice; [4],0
same,Rice plant response rating,rice; [5],0
same,"Plant response rating, Rice",rice; [6],0
same,"Plant response rating, S. Flatsedge",smallflower flatsedge; [4],0
same,S. Flatsedge plant response rating,smallflower flatsedge; [5],0
same,"Plant response rating, S. Flatsedge",smallflower flatsedge; [6],0
same,"Plant response rating, Ducksalad",duck salad; [4],0
same,Ducksalad plant response rating,duck salad; [5],0
same,"Plant response rating, Ducksalad",duck salad; [6],0

# — patent publication US6737383B1, “Herbicidal oxadiazolidines” (priority 1999, dated 2004)
